System: dd-strain male mice
Experiment: Acute toxicity test (minimum lethal dose, oral)
Format: in vivo
Settings: oral administration, mortality seven days after administration, three mice per group
Protocol: Test compounds were orally administered to groups of dd-strain male mice weighing 20±1 g, each group consisting of three mice. Seven days after the administration, minimum lethal dose (MLD) of each compound was determined by observing the mortality.

Row | SMILES | MLD
1 | CCCn1c(=O)c2[nH]c(/C=C/c3ccc(OC)c(C)c3C)nc2n(CCC)c1=O [Compound 12, (E)-8-(4-methoxy-2,3-dimethylstyryl)-1,3-dipropylxanthine] | > 300 mg/kg
2 | CCCn1c(=O)c2[nH]c(/C=C/c3ccc(OC)c(C)c3OC)nc2n(CCC)c1=O [Compound 14, (E)-8-(2,4-dimethoxy-3-methylstyryl)-1,3-dipropylxanthine] | > 100 mg/kg
3 | CCCn1c(=O)c2c(nc(/C=C/c3ccc4c(c3)OCCO4)n2C)n(CCC)c1=O [Compound 17, (E)-8-[2-(1,4-benzodioxan-6-yl)vinyl]-7-methyl-1,3-dipropylxanthine] | > 300 mg/kg
4 | CCCn1c(=O)c2c(nc(/C=C/c3ccc(OC)c(OC)c3OC)n2C)n(CCC)c1=O [Compound 21, (E)-7-methyl-1,3-dipropyl-8-(2,3,4-trimethoxystyryl)xanthine] | > 300 mg/kg
5 | CCCn1c(=O)c2nc(/C=C/c3cc(OC)c(OC)cc3OC)[nH]c2n(CCC)c1=O [Compound 22, (E)-1,3-dipropyl-8-(2,4,5-trimethoxystyryl)-xanthine] | > 300 mg/kg
6 | CCCn1c(=O)c2[nH]c(/C=C/c3cc(OC)c(OCc4ccccc4)c(OC)c3)nc2n(CCC)c1=O [Compound 26, (E)-8-(4-benzyloxy-3,5-dimethoxystyryl)-1,3-dipropylxanthine] | > 100 mg/kg
7 | CCCn1c(=O)c2c(nc(/C=C/c3cc(OC)c(OCc4ccccc4)c(OC)c3)n2C)n(CCC)c1=O [Compound 27, (E)-8-(4-benzyloxy-3,5-dimethoxystyryl)-7-methyl-1,3-dipropylxanthine] | > 100 mg/kg
8 | CCCn1c(=O)c2[nH]c(/C=C/c3cccc(OC)c3OC)nc2n(CCC)c1=O [Compound 28, (E)-8-(2,3-dimethoxystyryl)-1,3-dipropylxanthine] | > 100 mg/kg
9 | CCCn1c(=O)c2c(nc(/C=C/c3cccc(OC)c3OC)n2C)n(CCC)c1=O [Compound 29, (E)-8-(2,3-dimethoxystyryl)-7-methyl-1,3-dipropylxanthine] | > 300 mg/kg
10 | CCCn1c(=O)c2[nH]c(/C=C/c3ccc(C)c(C)c3)nc2n(CCC)c1=O [Compound 30, (E)-8-(3,4-dimethylstyryl)-1,3-dipropylxanthine] | > 100 mg/kg
11 | CCCn1c(=O)c2nc(/C=C/c3cc(OC)cc(OC)c3)[nH]c2n(CCC)c1=O [Compound 32, (E)-8-(3,5-dimethoxystyryl)-1,3-dipropylxanthine] | > 100 mg/kg
12 | CCCn1c(=O)c2c(nc(/C=C/c3cc(OC)cc(OC)c3)n2C)n(CCC)c1=O [Compound 33, (E)-8-(3,5-dimethoxystyryl)-7-methyl-1,3-dipropylxanthine] | > 100 mg/kg
13 | CCCn1c(=O)c2[nH]c(/C=C/c3cccc([N+](=O)[O-])c3)nc2n(CCC)c1=O [Compound 34, (E)-8-(3-nitrostyryl)-1,3-dipropylxanthine] | > 100 mg/kg
14 | CCCn1c(=O)c2c(nc(/C=C/c3cccc([N+](=O)[O-])c3)n2C)n(CCC)c1=O [Compound 35, (E)-7-methyl-8-(3-nitrostyryl)-1,3-dipropylxanthine] | > 100 mg/kg
15 | CCCn1c(=O)c2nc(/C=C/c3cccc(F)c3)[nH]c2n(CCC)c1=O [Compound 36, (E)-8-(3-fluorostyryl)-1,3-dipropylxanthine] | > 100 mg/kg
16 | CCCn1c(=O)c2c(nc(/C=C/c3cccc(F)c3)n2C)n(CCC)c1=O [Compound 37, (E)-8-(3-fluorostyryl)-7-methyl-1,3-dipropylxanthine] | > 100 mg/kg
17 | CCCn1c(=O)c2nc(/C=C/c3cccc(Cl)c3)[nH]c2n(CCC)c1=O [Compound 38, (E)-8-(3-chlorostyryl)-1,3-dipropylxanthine] | > 100 mg/kg
18 | CCCn1c(=O)c2c(nc(/C=C/c3cccc(Cl)c3)n2C)n(CCC)c1=O [Compound 39, (E)-8-(3-chlorostyryl)-7-methyl-1,3-dipropylxanthine] | > 100 mg/kg
19 | CCCn1c(=O)c2[nH]c(/C=C/c3ccccc3Cl)nc2n(CCC)c1=O [Compound 40, (E)-8-(2-chlorostyryl)-1,3-dipropylxanthine] | > 100 mg/kg

Row | SMILES | MLD
20 | CCCn1c(=O)c2c(nc(/C=C/c3ccccc3Cl)n2C)n(CCC)c1=O [Compound 41, (E)-8-(2-chlorostyryl)-7-methyl-1,3-dipropylxanthine] | > 100 mg/kg
21 | CCCn1c(=O)c2[nH]c(/C=C/c3ccccc3F)nc2n(CCC)c1=O [Compound 42, (E)-8-(2-fluorostyryl)-1,3-dipropylxanthine] | > 100 mg/kg
22 | CCCn1c(=O)c2c(nc(/C=C/c3ccccc3F)n2C)n(CCC)c1=O [Compound 43, (E)-8-(2-fluorostyryl)-7-methyl-1,3-dipropylxanthine] | > 100 mg/kg
23 | CCCn1c(=O)c2[nH]c(/C=C/c3cc(C)c(OC)cc3C)nc2n(CCC)c1=O [Compound 44, (E)-8-(4-methoxy-2,5-dimethylstyryl)-1,3-dipropylxanthine] | > 300 mg/kg
24 | CCCn1c(=O)c2c(nc(/C=C/c3cc(C)c(OC)cc3C)n2C)n(CCC)c1=O [Compound 45, (E)-8-(4-methoxy-2,5-dimethylstyryl)-7-methyl-1,3-dipropylxanthine] | > 300 mg/kg
25 | CCCn1c(=O)c2c(nc(/C=C\c3ccc(OC)c(OC)c3)n2C)n(CCC)c1=O [Compound 46, (Z)-8-(3,4-dimethoxystyryl)-7-methyl-1,3-dipropylxanthine] | > 300 mg/kg
26 | CCCn1c(=O)c2[nH]c(/C=C/c3ccc(OCC)cc3)nc2n(CCC)c1=O [Compound 47, (E)-8-(4-ethoxystyryl)-1,3-dipropylxanthine] | > 100 mg/kg
27 | CCCOc1ccc(/C=C/c2nc3c([nH]2)c(=O)n(CCC)c(=O)n3CCC)cc1 [Compound 49, (E)-8-(4-propoxystyryl)-1,3-dipropylxanthine] | > 100 mg/kg
28 | CCCCOc1ccc(/C=C/c2nc3c([nH]2)c(=O)n(CCC)c(=O)n3CCC)cc1 [Compound 51, (E)-8-(4-butoxystyryl)-1,3-dipropylxanthine] | > 100 mg/kg
29 | CCCCOc1ccc(/C=C/c2nc3c(c(=O)n(CCC)c(=O)n3CCC)n2C)cc1 [Compound 52, (E)-8-(4-butoxystyryl)-7-methyl-1,3-dipropylxanthine] | > 100 mg/kg
30 | CCCn1c(=O)c2c(nc(/C=C/c3ccc(OCC)c(OCC)c3)n2C)n(CCC)c1=O [Compound 54, (E)-8-(3,4-diethoxystyryl)-7-methyl-1,3-dipropylxanthine] | > 100 mg/kg
31 | CCCn1c(=O)c2[nH]c(/C=C/c3ccc(OC)c(Br)c3)nc2n(CCC)c1=O [Compound 55, (E)-8-(3-bromo-4-methoxystyryl)-1,3-dipropylxanthine] | > 100 mg/kg
32 | CCCn1c(=O)c2c(nc(/C=C/c3ccc(OC)c(Br)c3)n2C)n(CCC)c1=O [Compound 56, (E)-8-(3-bromo-4-methoxystyryl)-7-methyl-1,3-dipropylxanthine] | > 100 mg/kg
33 | CCCn1c(=O)c2[nH]c(/C=C/c3cc(OC)c(OC)cc3Br)nc2n(CCC)c1=O [Compound 57, (E)-8-(2-bromo-4,5-dimethoxystyryl)-1,3-dipropylxanthine] | > 300 mg/kg
34 | CCCn1c(=O)c2c(nc(/C=C/c3cc(OC)c(OC)cc3Br)n2C)n(CCC)c1=O [Compound 58, (E)-8-(2-bromo-4,5-dimethoxystyryl)-7-methyl-1,3-dipropylxanthine] | > 300 mg/kg
35 | CCCn1c(=O)c2c(nc(/C=C/c3cc(Br)c(OC)c(OC)c3)n2C)n(CCC)c1=O [Compound 60, (E)-8-(3-bromo-4,5-dimethoxystyryl)-7-methyl-1,3-dipropylxanthine] | > 100 mg/kg
36 | CCCn1c(=O)c2[nH]c(/C=C/c3ccc(OC)c4ccccc34)nc2n(CCC)c1=O [Compound 61, (E)-8-[2-(4-methoxynaphthyl)vinyl]-1,3-dipropylxanthine] | > 100 mg/kg
37 | CCCn1c(=O)c2c(nc(/C=C/c3ccc(OC)c4ccccc34)n2C)n(CCC)c1=O [Compound 62, (E)-8-[2-(4-methoxynaphthyl)vinyl]-7-methyl-1,3-dipropylxanthine] | > 100 mg/kg
38 | CCCn1c(=O)c2c(nc(/C=C/c3ccc(OC)c(O)c3)n2C)n(CCC)c1=O [Compound 63, (E)-8-(3-hydroxy-4-methoxystyryl)-7-methyl-1,3-dipropylxanthine] | > 100 mg/kg
